Reference: patent US9956157B2, “Composition containing fucosterol for skin whitening or moisturizing” (INDUSTRY-ACADEMIC COOPERATION FOUNDATION, YONSEI UNIVERSITY, priority 2014, dated 2018)

Tests used:
Assay type in all cases: cell-based
B16F10 melanoma cells [1] = experiment: MTT cytotoxicity in B16F10 melanoma cells; settings: concentration of 0 to 20 μM, 48 hrs, FIG. 1
Experimental: B16F10 melanoma cells were incubated a dulbecco's modified eagle's media (DMEM) medium including 10% fetal bovine serum and then added in a 24-well plate with 2.5×10^4 cell/mL (the final volume of 1 mL). Fucosterol of 0.1, 1, 5, 10, and 20 μM was treated in the B16F10 melanoma cells, respectively. After treatment of 48 hrs, the medium was removed and a 0.5 mg/mL MTT solution was put in each well by 0.3 mL and the B16F10 melanoma cells were incubated in an incubator for 4 hrs. After 4 hrs, the MTT solution was removed and generated formazan was dissolved by adding dimetyl sulfoxide (DMSO) and then absorbance was measured at 570 nm and the result was illustrated in FIG. 1.

B16F10 melanoma cells [2] = experiment: Melanin generation in α-MSH-stimulated B16F10 melanoma cells (absorbance 405 nm); settings: 200 nM α-MSH, fucosterol 5, 10, 20 μM, 72 hrs, P<0.01, FIG. 2
Experimental: B16F10 melanoma cells were incubated in a DMEM medium including 10% fetal bovine serum and then added in a 6-well plate with 2.5×10^5 cell/mL (the final volume of 3 mL). After being incubated for 24 hrs, the medium was removed and fucosterol which was dissolved in the DMEM medium including 200 nM α-MSH was treated at 5, 10, and 20 μM concentrations, respectively. After 72 hrs, the incubated medium was removed from the 6-well plate and 0.25% trypsin-ethylenediaminetetraacetate (trypsin-EDTA) solution was treated to collect a cell pellet, and the cell pellet was transferred to a 1.5 mL tube and centrifuged for 10 min at 10,000 rpm to remove a supernatant. […] This solution was diluted with phosphate buffered saline (PBS) and then the melanin content in a sample treatment group was calculated by measuring absorbance at 405 nm by an ELISA reader (Versa max, Sunnyvale, Calif., USA). In this case, cells without the fucosterol were set to a control group and the melanin generation degree was measured in the control group and cells treated with the fucosterol. According to Equation 1 below, the melanin content compared with the control group was calculated and the result was illustrated in FIG. 2. Melanin content (%) compared with control group=absorbance of each test material/absorbance of control group×100 [Equation 1]

B16F10 melanoma cells [3] = experiment: Microscopic observation of melanin generation in α-MSH-stimulated B16F10 melanoma cells; settings: 200 nM α-MSH, fucosterol 5 and 20 μM, 72 hrs, FIG. 3
Experimental: B16F10 melanoma cells were incubated in a DMEM medium including 10% fetal bovine serum and then added in a 6-well plate with 2.5×10^5 cell/mL (the final volume of 3 mL). After being incubated for 24 hrs, the medium was removed and fucosterol which was dissolved in the DMEM medium including 200 nM α-MSH was treated at 5 and 20 μM of concentrations, respectively. After 72 hrs, the incubated medium was removed from the 6-well plate and the B16F10 melanoma cells were photographed by using a microscope (Olympus IX71 Model), and the result was illustrated in FIG. 3.

transglutaminase [4] = experiment: Transglutaminase mRNA expression (RT-PCR) in HaCaT human keratinocytes; settings: HaCaT cells, fucosterol 5, 10, 20 μM, 24 hrs, FIG. 9
Experimental: HaCaT human keratinocytes were incubated in a Dulbecco's Modified Eagle's Media (DMEM) medium including 10% fetal bovine serum and then put in a 6-well plate with 2×10^5 cell/ml (the final volume of 3 ml). After being incubated for 24 hrs, the medium was removed and fucosterol which was dissolved in the DMEM medium was treated at 5, 10, and 20 μM concentrations, respectively. After 24 hrs, the total RNA was collected by using a TRIzol reagent (Invitrogen, Carlsbad, Calif., USA) and reverse-transcribed and then a reverse transcription-polymerase chain reaction (RT-PCR) analysis was performed below. First, for cDNA synthesis, the RNA was reverse-transcribed by reverse transcriptase. The RT-PCR was performed by specific primers below and the result was illustrated in FIG. 9.

transglutaminase [5] = experiment: Transglutaminase protein expression (western blot) in HaCaT human keratinocytes; settings: HaCaT cells, fucosterol 5, 10, 20 μM, 24 hrs, FIG. 10
Experimental: (§1) HaCaT human keratinocytes were incubated in a Dulbecco's Modified Eagle's Media (DMEM) medium including 10% fetal bovine serum and then put in a 6-well plate with 2×10^5 cell/ml (the final volume of 3 ml). After being incubated for 24 hrs, the medium was removed and fucosterol which was dissolved in the DMEM medium was treated at 5, 10, and 20 μM concentrations, respectively. After 24 hrs, the HaCaT human keratinocytes were lysed with a NP40 buffer solution including proteinase inhibitor cocktail. The protein amount extracted from the HaCaT human keratinocytes was quantified by using a Bradford method. The sample was boiled for 5 min and then the same amount of protein ([…]) was isolated by electrophoresis with 10% SDS-PAGE. The isolated proteins after electrophoresis were transferred to a nitrocellular membrane and western blot was performed. A primary antibody was reacted and the nitrocellular membrane was washed three times by using Tris-buffer saline tween20 (TBST) for 10 min. In this case, the kind and the dilution of the primary antibody used in the present invention is 1:1000. In a secondary antibody reaction, a secondary antibody was put in the membrane performing the primary antibody reaction and reacted for 2 hrs at room temperature. In this case, a dilution of the secondary antibody was 1:5000. […]

caspase 14 [6] = experiment: Caspase 14 mRNA expression (RT-PCR) in HaCaT human keratinocytes; settings: HaCaT cells, fucosterol 5, 10, 20 μM, 24 hrs, FIG. 11
Experimental: HaCaT human keratinocytes were incubated in a Dulbecco's Modified Eagle's Media (DMEM) medium including 10% fetal bovine serum and then put in a 6-well plate with 2×10^5 cell/ml (the final volume of 3 ml). After being incubated for 24 hrs, the medium was removed and fucosterol which was dissolved in the DMEM medium was treated at 5, 10, and 20 μM concentrations, respectively. After 24 hrs, the total RNA was collected by using a TRIzol reagent (Invitrogen, Carlsbad, Calif., USA) and reverse-transcribed and then a reverse transcription-polymerase chain reaction (RT-PCR) analysis was performed below. First, for cDNA synthesis, the RNA was reverse-transcribed by reverse transcriptase. The RT-PCR was performed by specific primers below and the result was illustrated in FIG. 11.

caspase 14 [7] = experiment: Caspase 14 protein expression (western blot) in HaCaT human keratinocytes; settings: HaCaT cells, fucosterol 5, 10, 20 μM, 24 hrs, FIG. 12
Experimental: as §1

C/C=C(\CC[C@@H](C)[C@H]1CC[C@H]2[C@@H]3CC=C4C[C@@H](O)CC[C@]4(C)[C@H]3CC[C@]12C)C(C)C [fucosterol]
cytotoxicity (MTT) (B16F10 melanoma cells [1]): the cytotoxicity was not shown
inhibitory effect on melanin generation (B16F10 melanoma cells [2]): very excellent inhibitory effect
melanin generation, microscopic observation (B16F10 melanoma cells [3]): largely inhibited
mRNA expression of transglutaminase (transglutaminase [4]): increased
protein expression of transglutaminase (transglutaminase [5]): increased
mRNA expression of caspase 14 (caspase 14 [6]): increased
protein expression of caspase 14 (caspase 14 [7]): increased
